# Reference: patent US8188078B2 (Sanofi-Aventis, priority 2007, dated 2012)
# Target: T1, MET (Homo sapiens, UniProt P08581)
# T1 construct: endogenous in cells; host or cells: MKN45 cells
# Assay: Test C: inhibition of the autophosphorylation of MET, ELISA technique (pppY1230, 1234, 1235), MKN45 cells
# Format: cell-based
# Description: C) Inhibition of the Autophosphorylation of MET; ELISA Technique (pppY1230, 1234, 1235)
# a) Cellular lysates: Sow the MKN45 cells in a 96-well plate (Cell coat BD polylysine) at 20 000 cells/well under 200 μl of medium RPMI+10% FCS+1% L-glutamine. Leave to adhere to the incubator for 24 h.
# The cells are treated on the day after sowing with the products at 6 concentrations in duplicate for 1 h. At least 3 control wells are treated with the same amount of final DMSO.
# Dilution of the products: Stock at 10 mM in pure DMSO—range from 10 mM to 30 μM with steps of 3 of pure DMSO—Intermediate dilutions to 1/50 in culture medium then taking of 10 μl added directly to the cells (200 μl): final range from 10000 to 30 nM.
# At the end of incubation, carefully remove the supernatant and rinse with 200 μl of PBS. Then put 100 μl of lysis buffer directly in the wells on ice and incubate at 4° C. for 30 minutes. Lysis buffer: 10 mM Tris, HCl pH7.4, 100 mM NaCl, 1 mM EDTA, 1 mM EGTA, 1% Triton X-100, 10% glycerol, 0.1% SDS, 0.5% deoxycholate, 20 mM NaF, 2 mM Na3VO4, 1 mM PMSF and antiprotease cocktail.
# The 100 μl of lysates are transferred to a V-bottomed polypropylene plate and ELISA is performed next or the plate is frozen at −80° C.
# b) ELISA PhosphoMET BioSource Kit KH00281
# In each well of the plate from the kit, add 70 μl of dilution buffer from the kit+30 μL of cell lysate or 30 μl of lysis buffer for the blank. Incubate for 2 h at room temperature, stirring gently.
# Rinse the wells 4 times with 400 μl of washing buffer from the kit. Incubate with 100 μl of anti-phospho MET antibodies for 1 h at room temperature.
# Rinse the wells 4 times with 400 μl of washing buffer from the kit. Incubate with 100 μl of anti-rabbit HRP antibodies for 30 minutes at room temperature (except for the wells with chromogen only).
# Rinse the wells 4 times with 400 μl of washing buffer from the kit. Add 100 μL of chromogen and incubate for 30 minutes in the dark at room temperature.
# Stop the reaction with 100 μl of stop solution. Read at once at […] 0.1 second in the Wallac Victor plate reader.
# The products of formula (I) as defined above show cellular activity in this test between 10 nM and 10 μM.
# T1 sequence (P08581 25-1390): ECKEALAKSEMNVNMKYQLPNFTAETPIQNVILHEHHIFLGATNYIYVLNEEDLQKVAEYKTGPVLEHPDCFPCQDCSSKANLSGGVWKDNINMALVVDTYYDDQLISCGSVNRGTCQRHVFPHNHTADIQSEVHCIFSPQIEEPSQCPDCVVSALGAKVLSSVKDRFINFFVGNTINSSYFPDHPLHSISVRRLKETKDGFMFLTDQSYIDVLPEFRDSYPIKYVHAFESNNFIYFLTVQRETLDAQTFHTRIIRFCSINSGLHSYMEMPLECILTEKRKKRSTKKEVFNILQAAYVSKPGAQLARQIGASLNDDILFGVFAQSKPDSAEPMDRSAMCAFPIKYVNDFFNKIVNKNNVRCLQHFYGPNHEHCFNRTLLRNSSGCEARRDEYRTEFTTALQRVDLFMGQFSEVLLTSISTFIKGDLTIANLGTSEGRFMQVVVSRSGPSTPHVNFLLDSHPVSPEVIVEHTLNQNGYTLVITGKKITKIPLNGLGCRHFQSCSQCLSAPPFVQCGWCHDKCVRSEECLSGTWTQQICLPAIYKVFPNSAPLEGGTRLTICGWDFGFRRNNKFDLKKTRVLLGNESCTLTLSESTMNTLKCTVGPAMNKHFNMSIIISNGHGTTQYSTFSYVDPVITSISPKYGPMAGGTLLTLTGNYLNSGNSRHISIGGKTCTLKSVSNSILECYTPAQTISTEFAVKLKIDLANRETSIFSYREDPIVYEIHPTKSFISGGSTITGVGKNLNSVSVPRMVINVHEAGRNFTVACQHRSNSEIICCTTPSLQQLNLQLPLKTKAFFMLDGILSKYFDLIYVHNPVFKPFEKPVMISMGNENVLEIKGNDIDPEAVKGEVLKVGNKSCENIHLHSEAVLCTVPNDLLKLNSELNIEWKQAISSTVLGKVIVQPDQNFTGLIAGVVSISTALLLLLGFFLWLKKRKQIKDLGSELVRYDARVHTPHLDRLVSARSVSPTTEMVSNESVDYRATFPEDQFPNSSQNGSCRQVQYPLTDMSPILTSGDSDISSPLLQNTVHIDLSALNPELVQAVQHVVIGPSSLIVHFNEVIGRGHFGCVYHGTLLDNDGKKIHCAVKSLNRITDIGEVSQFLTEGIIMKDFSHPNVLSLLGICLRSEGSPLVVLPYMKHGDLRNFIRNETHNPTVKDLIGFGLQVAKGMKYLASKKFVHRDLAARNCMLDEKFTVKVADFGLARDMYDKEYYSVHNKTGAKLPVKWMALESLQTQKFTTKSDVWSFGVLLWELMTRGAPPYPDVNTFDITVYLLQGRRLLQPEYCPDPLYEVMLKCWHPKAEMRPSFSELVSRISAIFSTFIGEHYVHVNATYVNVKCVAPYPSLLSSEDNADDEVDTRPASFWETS
row,SMILES,IC50 [µM]
1,"CC(Oc1ccc2nc(NC(=O)NCCN3CCOCC3)sc2c1)c1c(Cl)ccc(F)c1Cl (single isomer, unassigned) [Example 25, 1-{6-[(1R*)-(2,6-dichloro-3-fluorophenyl)ethoxy]-1,3-benzothiazol-2-yl}-3-(2-morpholin-4-ylethyl)urea]",< 0.5
2,"CC(Oc1ccc2nc(NC(=O)NCc3ccccn3)sc2c1)c1c(Cl)ccc(F)c1Cl (stereo not shown) [Example 58, 1-{6-[1-(2,6-dichloro-3-fluorophenyl)ethoxy]-1,3-benzothiazol-2-yl}-3-(pyridin-2-ylmethyl)urea]",0.5 to 10
3,"CC(Oc1ccc2nc(NC(=O)NCCN3CCCCC3)sc2c1)c1c(Cl)ccc(F)c1Cl (stereo not shown) [Example 50, 1-{6-[1-(2,6-dichloro-3-fluorophenyl)ethoxy]-1,3-benzothiazol-2-yl}-3-(2-piperidin-1-ylethyl)urea]",< 0.5
4,"CC(Oc1cc2sc(NC(=O)NCCN3CCN(C)CC3)nc2cc1F)c1c(F)ccc(Cl)c1Cl (single isomer, unassigned) [Example 117, 1-{6-[(1S*)-1-(2,3-dichloro-6-fluorophenyl)ethoxy]-5-fluoro-1,3-benzothiazol-2-yl}-3-[2-(4-methylpiperazin-1-yl)ethyl]urea]",0.5 to 10
5,"CC(Oc1ccc2nc(NC(=O)NCc3cccnc3)sc2c1)c1c(Cl)ccc(F)c1Cl (stereo not shown) [Example 59, 1-{6-[1-(2,6-dichloro-3-fluorophenyl)ethoxy]-1,3-benzothiazol-2-yl}-3-(pyridin-3-ylmethyl)urea]",0.5 to 10
6,"C[C@@H](Oc1cc2sc(NC(=O)NCCN3CCOCC3)nc2cc1F)c1c(Cl)ccc(F)c1Cl (single isomer, unassigned) [Example 32, 1-{6-[(1R)-(2,6-dichloro-3-fluorophenyl)ethoxy]-5-fluoro-1,3-benzothiazol-2-yl}-3-(2-morpholin-4-ylethyl)urea or 1-{6-[(1S)-(2,6-dichloro-3-fluorophenyl)ethoxy]-5-fluoro-1,3-benzothiazol-2-yl}-3-(2-morpholin-4-ylethyl)urea]",< 0.5
7,"CC(Oc1ccc2nc(NC(=O)NCCCN3CCC(Cc4ccccc4)CC3)sc2c1)c1c(Cl)ccc(F)c1Cl (stereo not shown) [Example 41, 1-[3-(4-benzylpiperidin-1-yl)propyl]-3-{6-[1-(2,6-dichloro-3-fluorophenyl)ethoxy]-1,3-benzothiazol-2-yl}urea]",0.5 to 10
8,"CC(Oc1ccc2nc(NC(=O)NCCN3C(C)CCCC3C)sc2c1)c1c(Cl)ccc(F)c1Cl (stereo not shown) [Example 56, 1-{6-[1-(2,6-dichloro-3-fluorophenyl)ethoxy]-1,3-benzothiazol-2-yl}-3-[2-(2,6-dimethylpiperidin-1-yl)ethyl]urea]",< 0.5

# Now from value to compound:
row,IC50 [µM],SMILES
1,< 0.5,"CC(Oc1ccc2nc(NC(=O)NCCN3CCN(C)CC3)sc2c1)c1c(Cl)ccc(F)c1Cl (stereo not shown) [Example 55, 1-{6-[1-(2,6-dichloro-3-fluorophenyl)ethoxy]-1,3-benzothiazol-2-yl}-3-[2-(4-methylpiperazin-1-yl)ethyl]urea]"
2,< 0.5,"CC(Oc1ccc2nc(NC(=O)NCCCN3CCOCC3)sc2c1)c1c(Cl)ccc(F)c1Cl (stereo not shown) [Example 42, 1-{6-[1-(2,6-dichloro-3-fluorophenyl)ethoxy]-1,3-benzothiazol-2-yl}-3-(3-morpholin-4-ylpropyl)urea]"
3,< 0.5,"CC(Oc1cc2sc(NC(=O)NCCN3CCCC3)nc2cc1F)c1c(F)ccc(Cl)c1Cl (single isomer, unassigned) [Example 119, 1-{6-[(1R*)-1-(2,3-dichloro-6-fluorophenyl)ethoxy]-5-fluoro-1,3-benzothiazol-2-yl}-3-[2-(pyrrolidin-1-yl)ethyl]urea]"
4,< 0.5,"CC(Oc1ccc2nc(NC(=O)NCCCN(C)C)sc2c1)c1c(Cl)ccc(F)c1Cl (stereo not shown) [Example 43, 1-{6-[1-(2,6-dichloro-3-fluorophenyl)ethoxy]-1,3-benzothiazol-2-yl}-3-[3-(dimethylamino)propyl]urea]"
5,< 0.5,"CC(Oc1ccc2nc(NC(=O)NCCN3CCCC3)sc2c1)c1c(Cl)ccc(F)c1Cl (stereo not shown) [Example 51, 1-{6-[1-(2,6-dichloro-3-fluorophenyl)ethoxy]-1,3-benzothiazol-2-yl}-3-(2-pyrrolidin-1-ylethyl)urea]"
